How the values were obtained:
[1] = test system: MAPK: ERK-1 (p44) and ERK-2 (p42); experiment: Estrogen-induced MAPK phosphorylation, Western blot in MCF-7 cells; format: cell-based, human; settings: MCF-7 parent cells, 1 nM estradiol (E2); antagonists pre-incubated at 1000 nM; FIG. 7A
Experimental: ERD inhibition of phosphorylation of MAPK, at both extracellular signal-regulated kinases ERK-1 (p44) and ERK-2 (p42) and downstream effects. […] Thus, we measured estrogen-induced phosphorylation of MAPK by established methods (9,15,16). Briefly, MCF-7 parental cells were estrogen deprived for 48 hrs, then treated with 1 nM estradiol-1713 in the presence of new compounds (10 nM-10 μM) to be tested for antagonist activity. After treatments, cell lysates were separated by SDS-PAGE followed by Western blot using a polyclonal antibody directed to phospho-p44/p42 MAP kinase (Thr202/Tyr204) (Cell Signaling). Immunodetection with antibody against total p44/p42 (Cell Signaling) was done as a control for gel loading. […] ERD S15 was as effective as fulvestrant in inhibiting the rapid estrogen-induced MAPK phosphorylation in breast tumor cells in vitro. […] E2 but not vehicle (CN) induced rapid phosphorylation of ERK-1 (p44) and ERK-2 (p42). This activation was prevented when cells were pre-incubated with 1000 nM ICI 182,780 (ICI; Faslodex) or 1000 nM compound S15 in the presence of estradiol (E2).

estrogen receptor = biological target: T1, estrogen receptor (Homo sapiens, UniProt P03372); experiment: Specific [3H]estradiol-17β binding by MCF-7 parental cells; settings: 2 nM [3H]estradiol-17β, compounds at 10 μM, FIG. 5A
T1 construct: endogenous in cells; host or cells: MCF-7 parental (MCF-7/CON) human breast cancer cells
T1 sequence (P03372 1-595): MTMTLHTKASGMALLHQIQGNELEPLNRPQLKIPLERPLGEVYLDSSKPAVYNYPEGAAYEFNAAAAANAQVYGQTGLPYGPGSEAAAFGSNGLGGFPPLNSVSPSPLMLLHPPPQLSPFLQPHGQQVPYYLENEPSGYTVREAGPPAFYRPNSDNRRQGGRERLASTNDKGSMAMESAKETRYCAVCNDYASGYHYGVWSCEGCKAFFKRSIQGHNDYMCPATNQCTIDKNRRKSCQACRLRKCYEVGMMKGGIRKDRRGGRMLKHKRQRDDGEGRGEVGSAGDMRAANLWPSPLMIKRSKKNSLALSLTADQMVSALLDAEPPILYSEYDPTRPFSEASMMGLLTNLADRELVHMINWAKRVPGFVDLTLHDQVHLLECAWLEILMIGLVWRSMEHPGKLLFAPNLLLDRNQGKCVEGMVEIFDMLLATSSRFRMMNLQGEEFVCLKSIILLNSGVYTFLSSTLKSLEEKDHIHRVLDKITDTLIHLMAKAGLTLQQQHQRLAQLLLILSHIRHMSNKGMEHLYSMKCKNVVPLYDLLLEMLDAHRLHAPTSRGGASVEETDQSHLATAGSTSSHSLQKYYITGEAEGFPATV
Experimental: Specific estradiol binding: Specific estradiol-17β (E2) binding was assessed in MCF-7 parental breast cancer cells as before (14-16). […] MCF-7 cells were incubated with 2 nM [^3H]estradiol-17β and antiestrogens (all at 10 μM concentration; numbers Si to S15), with ICI 182,780 (ICI; fulvestrant) used as a control (n=3). Compounds S1-S14 are test compounds different from the exemplified compounds described herein.

[2] = test system: Tamoxifen-resistant human MCF-7 breast cancer cells; experiment: Endocrine-resistant breast cancer cell proliferation in vitro; format: cell-based; settings: 72 hrs; 50 nM Palbociclib, 10 nM S128, or both; P<0.001 vs control and 100 nM tamoxifen; FIG. 10
Experimental: Tamoxifen-resistant human MCF-7 breast cancer cells were treated in vitro with control vehicle (CON), 100 nM tamoxifen (TAM), 50 nM Palbociclib (Pb) or 10 nM S128 or with Palbociclib in combination with S128 (S128+Pb) over 72 hrs. […] (FIG. 10)

SMILES | phosphorylation of MAPK (ERK-1 p44 and ERK-2 p42) [1] | specific binding of [3H]estradiol-17β (estrogen receptor) | specific binding of [3H]estradiol-17β (estrogen receptor; listed as S15) | endocrine-resistant breast cancer cell proliferation [2]
C[C@]12C[C@H](Oc3ccc(N)cc3)[C@@H]3c4ccc(O)cc4CC[C@H]3[C@@H]1CC[C@@H]2O [JD105, (8S,9S,11S,13S,14S,17S)-11-(4-aminophenoxy)-13-methyl-7,8,9,11,12,13,14,15,16,17-decahydro-6H-cyclopenta[a]phenanthrene-3,17-diol] | inhibits phosphorylation of MAPK | suppressed | suppressed effectively | –
C[C@]12C[C@H](Oc3ccc(N)c(C(F)(F)F)c3)[C@@H]3c4ccc(O)cc4CC[C@H]3[C@@H]1CC[C@@H]2O [JD128, (8S,9S,11S,13S,14S,17S)-11-(4-Amino-3-(trifluoromethyl)phenoxy)-13-methyl-7,8,9,11,12,13,14,15,16,17-decahydro-6H-cyclopenta[a]phenanthrene-3,17-diol] | – | – | – | significantly different from control
